# Measurements: US12590054B2 (Board of Regents, The University of Texas System, priority 2021, dated 2026)
# Entries after “also recorded” stand apart in the source; their conditions may differ.
# Legend:
# [1] = test system: mice with plantar incision; experiment: Postoperative pain model (plantar incision), von Frey paw withdrawal; settings: for effect on postoperative mechanical hypersensitivity: post-operative treatment
# Method: (§1) Animal models of pain. To model postoperative pain in mice, plantar incision was performed under isoflurane anesthesia. Specifically, a 4-8 mm incision was made through the skin, fascia, and muscle of the plantar side of one hind paw, longitudinally starting from the proximal edge of the heel. The skin was apposed with sutures (Fine Science Tools, Foster City, CA). The suture was removed at the end of postoperative day 2. To model neuropathic pain in mice, a surgery was performed to ligate the fifth lumbar (L5) spinal nerve (spinal nerve ligation, SNL).
# (§2) Behavioral testing. Mechanical pain sensitivity after plantar incision or SNL was assessed by measuring paw withdrawal behaviors in response to von Frey filament (VFF) probing. A mouse was placed in a plastic chamber on top of a mesh screen platform. The VFF of 0.98 mN was applied perpendicularly to the hind paw. […] The percent of withdrawal responses out of the ten trials was recorded.
# (§3) Statistical analysis. We used a generalized linear mixed model to analyze the number of withdrawals out of 10 trials (binomial distribution) repeatedly measured at multiple time points (AR1 covariance structure) with random intercepts for subject (i.e., mouse) variances. Degrees of freedom were allowed to vary across tests by Satterthwaite approximation.
# [2] = Tissue distribution after single i.v. injection in male CD-1 mice; settings: for rank order of the exposure of the organs to the parent drug: i.v. administration
# naïve mice = experiment: Abuse liability, conditioned place preference (CPP) paradigm; assay type: in vivo, mouse; settings: 2-day conditioning
# Method: Experimental approaches. […] Specifically, one day after measuring natural place preference, vehicle was be given in the morning, and the mouse was placed in its preferred chamber for 20 min. In the afternoon, test drugs were given, and the mouse was placed in its non-preferred chamber for 20 min. This conditioning procedure was repeated 2 times. One day after the last conditioning session, CPP for the drug-paired chamber was measured for 20 min.
# human hepatic microsomes = settings: pooled human liver microsomes, 50-200 μM substrate, 20 min, 37° C.
# Method: The reaction was incubated for 20 min at 37° C. and terminated by the addition of 1.2 mL of cold acetonitrile.
# Analytical method: An LC-MS/MS method for the quantification of EDDP, d3-EDDP and d6-EDDP was developed and validated. The samples were analyzed with an API 4000 triple quadrupole mass spectrometer coupled with an Agilent HPLC 1200 system (Applied Biosystems, Foster City, CA). […] Separation of EDDP, d3-EDDP and d6-EDDP was achieved by a Waters Symmetry C18 HPLC column at 45° C.
# [3] = test system: mice with spinal nerve ligation (SNL); experiment: Neuropathic pain model (spinal nerve ligation, SNL), von Frey paw withdrawal
# Method: as §1, §2, §3
# Swiss mice = settings: intraperitoneally (i.p.); cited from earlier work
# [4] = Plasma pharmacokinetics after single i.v. injection in male CD-1 mice; settings: parent drug in plasma, 2.0 mg/kg i.v.
# [5] = 3 mg/kg i.p., once daily for 4 days
compound,measurement,setting,value
[2H]C([2H])([2H])CC(=O)C(CC(C)N(C([2H])([2H])[2H])C([2H])([2H])[2H])(c1ccccc1)c1ccccc1 (racemic) [d9-methadone],"postoperative mechanical hypersensitivity vs methadone-treated mice, next day","[1]; intra-operative treatment, 3 mg/kg i.p.",no difference
same,"postoperative mechanical hypersensitivity vs methadone-treated mice, day of surgery (2 hr, 4 hr)","[1]; intra-operative treatment, 3 mg/kg i.p. before plantar incision",lower postoperative mechanical hypersensitivity
same,development of analgesic tolerance,"[1]; once daily for 4 days, 3 mg/kg i.p.",no development of the apparent analgesic tolerance
same,effect on postoperative mechanical hypersensitivity,[1]; [5],alleviated hypersensitivity after each systemic injection
same,"Cohen's d, % withdrawals before and after treatment","[1]; postoperative treatment, paired comparison",> 20
same,"Cohen's d between methadone and d9-methadone groups, % of withdrawals 4 hours post-incision",[1]; preliminary intra-operative treatment,2.1
same,rank order of the exposure of the organs to the parent drug,[2],lungs>kidneys≈liver>spleen>heart>brain
same,Kp,"[2]; male, CD-1, mouse, in vivo, iv, 2 mg/kg",0.35 ± 0.12
same,conditioned place preference for the drug-paired chamber,naïve mice,did not develop conditioned place preference; also recorded: did not develop CPP; also recorded: did not show any apparent conditioned place preference
same,biotransformation (N-demethylation) rate compared to the non-deuterated substrate,human hepatic microsomes,further decreased the rate
same,effect on neuropathic pain (tactile allodynia),[3]; 3 mg/kg i.p. once daily for 3 days after SNL,effectively alleviated this neuropathic pain after each injection; also recorded: effectively inhibited this neuropathic pain after each injection
same,development of analgesic tolerance,"[3]; once daily for 3 days, 3 mg/kg i.p.",no development of the apparent analgesic tolerance
"CCC(=O)C(CC(C)N(C)C)(c1ccccc1)c1ccccc1 (racemic) [methadone, 6-(dimethylamino)-4,4-diphenylheptan-3-one]",LD50,Swiss mice,41 mg/kg
same,effect on postoperative mechanical hypersensitivity,[1]; [5],unable to reduce
same,rank order of the exposure of the organs to the parent drug,[2],kidneys≈lungs>spleen>liver>heart>brain
same,conditioned place preference for the drug-paired chamber,naïve mice,developed CPP; also recorded: relatively weaker conditioned place preference
same,AUC0-8 h,[4],414 ± 67 ng·h/mL
same,AUC0-∞,[4],436 ± 75 ng·h/mL
same,Tmax,[4],0.08 ± 0^ h
same,Cmax,[4]; mean ± s.d.,521 ± 55 ng/mL
"CCC1=[N+](C)C(C)CC1(c1ccccc1)c1ccccc1 (stereo not drawn) [EDDP, 2-ethylidine-1,5-dimethyl-3,3-diphenylpyrrolidine]",rank order of the exposure of the organs to the metabolite,[2]; i.v. administration of the parent drug,lungs>liver>kidney≈heart>spleen
"C=CC[N+]1(C)CC[C@]23c4c5ccc(O)c4O[C@H]2C(=O)CC[C@@]3(O)[C@H]1C5 (stereo partly drawn) [NLXM, naloxone methiodide, reference compound]",effect of NLXM on the relief of postoperative pain by d9-methadone,[1]; NLXM 10 mg/kg i.p. 30 minutes before d9-methadone,completely blocked the effect of d9-methadone
"[2H]C([2H])([2H])CC(=O)C(CC(C)N(C)C)(c1ccccc1)c1ccccc1 (stereo not drawn) [d3-methadone, reference compound]",biotransformation (N-demethylation) rate compared to the non-deuterated substrate,human hepatic microsomes,significantly decreased the biotransformation
CN1CC[C@]23c4c5ccc(O)c4O[C@H]2[C@@H](O)C=C[C@H]3[C@H]1C5 [morphine],conditioned place preference for the drug-paired chamber,naïve mice,spent significantly more time in the bright chamber; also recorded: developed CPP
